Results on 20 compounds are retold here after patent US10189839B2, “Tricyclic imidazole compounds as inhibitors of tryptophan hydroxylase” (ACTELION PHARMACEUTICALS LTD, priority 2013, dated 2019).

Molecules are shown by their SMILES.

The experiment concerns the target T1, full length human TPH1 (Homo sapiens, UniProt P17752).
T1 construct: To generate the enzyme, full length human TPH1 is cloned into the plasmid pET20b(+); made in house; host or cells: E. coli
T1 sequence (P17752 1-444): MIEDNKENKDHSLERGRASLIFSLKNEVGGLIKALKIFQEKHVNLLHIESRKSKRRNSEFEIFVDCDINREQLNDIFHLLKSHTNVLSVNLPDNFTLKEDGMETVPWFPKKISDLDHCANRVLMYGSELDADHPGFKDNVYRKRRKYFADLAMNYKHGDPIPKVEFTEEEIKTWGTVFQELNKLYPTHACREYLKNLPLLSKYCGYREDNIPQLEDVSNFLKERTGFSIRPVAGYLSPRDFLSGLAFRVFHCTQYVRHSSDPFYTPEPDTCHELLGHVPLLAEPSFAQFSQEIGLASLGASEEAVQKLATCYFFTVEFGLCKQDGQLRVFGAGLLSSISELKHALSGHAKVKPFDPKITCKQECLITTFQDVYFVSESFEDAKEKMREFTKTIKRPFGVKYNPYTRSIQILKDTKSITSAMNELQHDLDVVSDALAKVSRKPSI
Put plainly: Biochemical in vitro assay using fluorescence readout (TPH1 enzyme activity). The following applies: Table 1, mean where determined several times. The text has this: Inhibitory activities on tryptophan hydroxylase 1 have been measured for each example compound using the following procedure:
Biochemical In Vitro Assay Using Fluorescence Readout
To generate the enzyme, full length human TPH1 is cloned into the plasmid pET20b(+) (Novagen) and expressed in E. coli. The bacterial cells are ruptured by sonication on ice and the lysate is cleared by centrifugation. The resulting protein in the pellet is re-extracted and TPH1 is purified from the obtained lysate by affinity chromatography using a pterin cosubstrate analog immobilized to the resin of the column. The protein is further purified by size exclusion chromatography to remove protein aggregates. The activity of TPH1 is determined by using a fluorescence assay. The enzyme activity assay is carried out at 15° C. with atmosphere oxygen for the duration of 60 minutes in a volume of 64 μl. The reaction is carried out in a 0.1M Tris-HCl buffer, adjusted to pH 7.6, containing 1 mM DTT, 0.2 mg/ml catalase, 100 μM (±)-6-methyl-5,6,7,8-tetrahydropterine dihydrochloride, 40 μM L-tryptophan, and 40-80 nM of TPH1. The reaction is started by bringing together L-tryptophan with all the other reaction substituents and stopped by quenching with perchloric acid (HClO4). The amount of 5-hydroxy-L-tryptophan produced during the enzymatic reaction is determined by fluorescence readout. Fluorescence, as determined at 540 nm when excited at 300 nm wavelength, increases proportionally to the 5-hydroxy-L-tryptophan formed. Compounds are prepared as 10 mM stock solution in DMSO, then diluted in 384-well plates using DMSO followed by a transfer of the dilutions into the assay plate. Fluorescence is measured for each well and the fluorescence at 540 nm wavelength is compared to the fluorescence of the vehicle in place of compound. Inhibitory activities of example compounds with respect to the TPH1 protein are determined by calculating the IC50 value (the concentration of compound needed to inhibit 50% of the enzyme activity). The calculated IC50 values may fluctuate depending on the daily biochemical assay performance. Fluctuations of this kind are known to those skilled in the art. In the case where IC50 values have been determined several times for the same compound, the mean is given.
`CN(C)C(=O)c1ccc(OCC(=O)N2CCc3nc4n(c3C2c2ccc(Cl)cc2F)CCCC4)c(Cl)n1` (centres unmarked) [Example 1.1.1, 6-chloro-5-(2-(1-(4-chloro-2-fluorophenyl)-3,4,6,7,8,9-hexahydroimidazo[1,2-a:5,4-c′]dipyridin-2(1H)-yl)-2-oxoethoxy)-N,N-dimethylpicolinamide]: the IC50 stood at 15 nM.

In turn, `O=C(COc1ccc(N2CCOCC2)nc1Cl)N1CCc2nc3n(c2C1c1ccc(Cl)cc1F)CCCC3` (centres unmarked) [Example 1.1.2, 1-(1-(4-chloro-2-fluorophenyl)-3,4,6,7,8,9-hexahydro-imidazo[1,2-a:5,4-c′]dipyridin-2(1H)-yl)-2-((2-chloro-6-morpholinopyridin-3-yl)oxy)ethanone] returned an IC50 of 7 nM.

Take `CS(=O)(=O)Nc1ccc(OCC(=O)N2CCc3nc4n(c3C2c2ccc(Cl)cc2F)CCCC4)c(Cl)n1` (centres unmarked) [Example 1.1.3, N-(6-chloro-5-(2-(1-(4-chloro-2-fluorophenyl)-3,4,6,7,8,9-hexahydroimidazo[1,2-a:5,4-c′]dipyridin-2(1H)-yl)-2-oxoethoxy)pyridin-2-yl)methanesulfonamide]: the IC50 was 26 nM.

`CN(C(=O)c1ccc(OCC(=O)N2CCc3nc4n(c3C2c2ccc(Cl)cc2F)CCCC4)c(Cl)n1)C1CC1` (centres unmarked) [Example 1.1.4, 6-chloro-5-(2-(1-(4-chloro-2-fluorophenyl)-3,4,6,7,8,9-hexahydroimidazo[1,2-a:5,4-c′]dipyridin-2(1H)-yl)-2-oxoethoxy)-N-cyclopropyl-N-methylpicolinamide]: half-maximal inhibition (IC50) required 29 nM.

As for `O=C(COc1ccc(-c2ncco2)nc1Cl)N1CCc2nc3n(c2C1c1ccc(Cl)cc1F)CCCC3` (centres unmarked) [Example 1.1.5, 1-(1-(4-chloro-2-fluorophenyl)-3,4,6,7,8,9-hexahydro-imidazo[1,2-a:5,4-c′]dipyridin-2(1H)-yl)-2-((2-chloro-6-(oxazol-2-yl)pyridin-3-yl)oxy)ethanone], the IC50 is 21 nM.

Consider `O=C(NC1CC1)c1ccc(OCC(=O)N2CCc3nc4n(c3C2c2ccc(Cl)cc2F)CCCC4)c(Cl)n1` (centres unmarked) [Example 1.1.6, 6-chloro-5-(2-(1-(4-chloro-2-fluorophenyl)-3,4,6,7,8,9-hexahydroimidazo[1,2-a:5,4-c′]dipyridin-2(1H)-yl)-2-oxoethoxy)-N-cyclopropylpicolinamide], for which the IC50 stood at 19 nM.

`CCN(C)C(=O)c1ccc(OCC(=O)N2CCc3nc4n(c3C2c2ccc(Cl)cc2F)CCCC4)c(Cl)n1` (centres unmarked) [Example 1.1.7, 6-chloro-5-(2-(1-(4-chloro-2-fluorophenyl)-3,4,6,7,8,9-hexahydroimidazo[1,2-a:5,4-c′]dipyridin-2(1H)-yl)-2-oxoethoxy)-N-ethyl-N-methylpicolinamide] gave an IC50 of 25 nM.

The compound `CC(C)N(C)C(=O)c1ccc(OCC(=O)N2CCc3nc4n(c3C2c2ccc(Cl)cc2F)CCCC4)c(Cl)n1` (centres unmarked) [Example 1.1.8, 6-chloro-5-(2-(1-(4-chloro-2-fluorophenyl)-3,4,6,7,8,9-hexahydroimidazo[1,2-a:5,4-c′]dipyridin-2(1H)-yl)-2-oxoethoxy)-N-isopropyl-N-methylpicolinamide] gave an IC50 of 55 nM.

`CN(c1ccc(OCC(=O)N2CCc3nc4n(c3C2c2ccc(Cl)cc2F)CCCC4)c(Cl)n1)S(C)(=O)=O` (centres unmarked) [Example 1.1.9, N-(6-chloro-5-(2-(1-(4-chloro-2-fluorophenyl)-3,4,6,7,8,9-hexahydroimidazo[1,2-a:5,4-c′]dipyridin-2(1H)-yl)-2-oxoethoxy)pyridin-2-yl)-N-methylmethanesulfonamide]: the midpoint of inhibition, the IC50, lay at 25 nM.

As for `O=C(COc1ccc(N2CCCS2(=O)=O)nc1Cl)N1CCc2nc3n(c2C1c1ccc(Cl)cc1F)CCCC3` (centres unmarked) [Example 1.1.10, 1-(1-(4-chloro-2-fluorophenyl)-3,4,6,7,8,9-hexahydro-imidazo[1,2-a:5,4-c′]dipyridin-2(1H)-yl)-2-((2-chloro-6-(1,1-dioxidoisothiazolidin-2-yl)pyridin-3-yl)oxy)-ethanone], the IC50 came out at 17 nM.

On to `CCc1nc(NS(C)(=O)=O)ccc1OCC(=O)N1CCc2nc3n(c2C1c1ccc(Cl)cc1F)CCCC3` (centres unmarked) [Example 1.1.11, N-(5-(2-(1-(4-chloro-2-fluorophenyl)-3,4,6,7,8,9-hexahydroimidazo[1,2-a:5,4-c′]dipyridin-2(1H)-yl)-2-oxoethoxy)-6-ethylpyridin-2-yl)methanesulfonamide], for which the IC50 worked out at 8 nM.

Compound `CCc1nc(C(=O)NC2CC2)ccc1OCC(=O)N1CCc2nc3n(c2C1c1ccc(Cl)cc1F)CCCC3` (centres unmarked) [Example 1.1.12, 5-(2-(1-(4-chloro-2-fluorophenyl)-3,4,6,7,8,9-hexahydroimidazo[1,2-a:5,4-c′]dipyridin-2(1H)-yl)-2-oxoethoxy)-N-cyclopropyl-6-ethylpicolinamide] gave an IC50 of 9 nM.

`COc1nc(NS(C)(=O)=O)ccc1OCC(=O)N1CCc2nc3n(c2C1c1ccc(Cl)cc1F)CCCC3` (centres unmarked) [Example 1.1.13, N-(5-(2-(1-(4-chloro-2-fluorophenyl)-3,4,6,7,8,9-hexahydroimidazo[1,2-a:5,4-c′]dipyridin-2(1H)-yl)-2-oxoethoxy)-6-methoxypyridin-2-yl)methanesulfonamide] returned an IC50 of 347 nM.

The compound `O=C(COc1ccc(C2CC2)nc1Cl)N1CCc2nc3n(c2C1c1ccc(Cl)cc1F)CCCC3` (centres unmarked) [Example 1.1.14, 1-(1-(4-chloro-2-fluorophenyl)-3,4,6,7,8,9-hexahydroimidazo[1,2-a:5,4-c′]dipyridin-2(1H)-yl)-2-((2-chloro-6-cyclopropylpyridin-3-yl)oxy)ethanone] showed an IC50 of 16 nM.

In turn, `CCc1nc(C)ccc1OCC(=O)N1CCc2nc3n(c2C1c1ccc(Cl)cc1F)CCCC3` (centres unmarked) [Example 1.1.15, 1-(1-(4-chloro-2-fluorophenyl)-3,4,6,7,8,9-hexahydroimidazo[1,2-a:5,4-c′]dipyridin-2(1H)-yl)-2-((2-ethyl-6-methylpyridin-3-yl)oxy)ethanone] returned an IC50 of 39 nM.

Consider `O=C(NC1CC1)c1ccc(OCC(=O)N2CCc3nc4n(c3[C@@H]2c2ccc(Cl)cc2F)CCCC4)c(Cl)n1` [Example 1.1.16, (S)-6-chloro-5-(2-(1-(4-chloro-2-fluorophenyl)-3,4,6,7,8,9-hexahydroimidazo[1,2-a:5,4-c′]dipyridin-2(1H)-yl)-2-oxoethoxy)-N-cyclopropylpicolinamide], for which half-maximal inhibition (IC50) was put at 12 nM.

Turning to `CS(=O)(=O)Nc1ccc(OCC(=O)N2CCc3nc4n(c3[C@@H]2c2ccc(Cl)cc2F)CCCC4)c(Cl)n1` [Example 1.1.17, (S)-N-(6-chloro-5-(2-(1-(4-chloro-2-fluorophenyl)-3,4,6,7,8,9-hexahydroimidazo[1,2-a:5,4-c′]dipyridin-2(1H)-yl)-2-oxoethoxy)pyridin-2-yl)methanesulfonamide], inhibition was half-maximal at 23 nM (IC50).

Compound `CCc1nc(NS(C)(=O)=O)ccc1OCC(=O)N1CCc2nc3n(c2[C@@H]1c1ccc(Cl)cc1F)CCCC3` [Example 1.1.18, (S)-N-(5-(2-(1-(4-chloro-2-fluorophenyl)-3,4,6,7,8,9-hexahydroimidazo[1,2-a:5,4-c′]dipyridin-2(1H)-yl)-2-oxoethoxy)-6-ethylpyridin-2-yl)methanesulfonamide] had an IC50 of 8 nM.

The compound `CS(=O)(=O)Nc1ccc(OC2(C(=O)N3CCc4nc5n(c4C3c3ccc(Cl)cc3F)CCCC5)CC2)c(Cl)n1` (centres unmarked) [Example 1.1.19, N-(6-chloro-5-(1-(1-(4-chloro-2-fluorophenyl)-1,2,3,4,6,7,8,9-octahydroimidazo[1,2-a:5,4-c′]dipyridine-2-carbonyl)cyclopropoxy)pyridin-2-yl)methanesulfonamide] had an IC50 of 58 nM.

As to `CS(=O)(=O)Nc1ccc(OCC(=O)N2CCc3nc4n(c3C2c2ccc(Cl)cc2F)CCCC4)c(C2CC2)n1` (centres unmarked) [Example 1.1.20, N-(5-(2-(1-(4-chloro-2-fluorophenyl)-3,4,6,7,8,9-hexahydroimidazo[1,2-a:5,4-c′]dipyridin-2(1H)-yl)-2-oxoethoxy)-6-cyclopropylpyridin-2-yl)methanesulfonamide], the IC50 worked out at 21 nM.

As a reminder, the IC50 is the midpoint of a concentration-inhibition curve. A low value points to inhibition by little substance.
